Our source for the Kd values is BindingDB's records for doi:10.1021/jm000181f (Deakin University, 2001).

The nature of assay [1]: Dissociation constant of [3H]DPCPX binding to adenosine A1 receptor (AR) at 200 nM.
Assay [2] is described as follows: Dissociation constant of [3H]DPCPX binding to adenosine A1 receptor (AR) at 0.05 nM.
The nature of assay [3]: Dissociation constant of [3H]-DPCPX binding to adenosine A1 receptor (AR) at 0.1 nM.
The nature of assay [4]: Dissociation constant of [3H]DPCPX binding to adenosine A1 receptor (AR) at 100 nM.
A short description of assay [5]: Dissociation constant of [3H]DPCPX binding to adenosine A1 receptor (AR) at 5 nM.
Assay [6] is described as follows: Dissociation constant of [3H]DPCPX binding to adenosine A1 receptor(AR) at 0.1 nM.
Assay [7] is described as follows: Dissociation constant of [3H]-DPCPX binding to adenosine A1 receptor(AR) at 0.05 nM.

A word on the Kd: it is the concentration at which binding is half-saturated.

In assay [1], `CCCn1c(=O)c2[nH]c(C3CCCCC3)nc2n(CCCCCc2ccc(S(=O)(=O)F)cc2)c1=O` [4-[5-(8-Cyclohexyl-2,6-dioxo-1-propyl-1,2,6,7-tetrahydro-purin-3-yl)-pentyl]-benzenesulfonyl fluoride] came in with a Kd of 0.81 nM. On to `CCCn1c(=O)c2[nH]c(C3CCCCC3)nc2n(CCCNC(=O)c2ccc(S(=O)(=O)F)cc2)c1=O` [4-[3-(8-Cyclohexyl-2,6-dioxo-1-propyl-1,2,6,7-tetrahydro-purin-3-yl)-propylcarbamoyl]-benzenesulfonyl fluoride], for which the Kd in assay [2] was 0.28 nM; in assay [3], 0.27 nM; in assay [4] it was 0.34 nM; in assay [5] it was 0.37 nM. In assay [1], `CCCn1c(=O)c2[nH]c(C3CCCCC3)nc2n(CCCc2ccc(S(=O)(=O)F)cc2)c1=O` [4-[3-(8-Cyclohexyl-2,6-dioxo-1-propyl-1,2,6,7-tetrahydro-purin-3-yl)-propyl]-benzenesulfonyl fluoride] came in with a Kd of 0.37 nM. Turning to `CCCn1c(=O)c2[nH]c(C3CCCC3)nc2n(CCCNC(=O)c2ccc(S(=O)(=O)F)cc2)c1=O` [4-[3-(8-Cyclopentyl-2,6-dioxo-1-propyl-1,2,6,7-tetrahydro-purin-3-yl)-propylcarbamoyl]-benzenesulfonyl fluoride], the dissociation constant (Kd) in assay [6] was found to be 0.24 nM; in assay [7] it was 0.26 nM.

In assay [1], `CCCn1c(=O)c2[nH]c(C3CCCCC3)nc2n(Cc2ccc(S(=O)(=O)F)cc2)c1=O` [4-(8-Cyclohexyl-2,6-dioxo-1-propyl-1,2,6,7-tetrahydro-purin-3-ylmethyl)-benzenesulfonyl fluoride] displayed an equilibrium dissociation constant (Kd) of 0.32 nM.
